In patent publication US20230000870A1, “METHODS OF TREATING CANCER IN BIOMARKER-IDENTIFIED PATIENTS WITH INHIBITORS OF CYCLIN-DEPENDENT KINASE 7 (CDK7)” (Syros Pharmaceuticals, Inc., priority 2019, published 2023):

Columns and labels:
CDK2/Cyclin E1 complex = CDK2/Cyclin E1 complex (Homo sapiens, UniProt P24941); assay: CDK2 kinase inhibition assay (Caliper/LabChip EZ Reader); assay type: biochemical; settings: CDK2/Cyclin E1 0.5 nM, ATP 2 mM, 35 min at 27° C.
Procedure, shortened: (§1)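 Incubation times were set for ~20% (±5%) peptide phosphorylation by uninhibited enzyme: CDK7 35 min, CDK2 35 min (0.5 nM complex, 2 μM 5-FAM-CDK7tide, 2 mM MgCl2), CDK12 3 hr (50 nM, 2 μM 5-FAM-CDK9tide, 2 mM MgCl2), CDK9 15 min (8 nM, 2 μM 5-FAM-CDK9tide, 10 mM MgCl2). Read-out on LabChip EZ Reader, 27° C.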

[1] = target: CDK7/Cyclin H/MAT1 complex (Homo sapiens, UniProt P50613); assay: CDK7 kinase inhibition assay (Caliper/LabChip EZ Reader); assay type: biochemical; settings: CDK7/Cyclin H/MAT1 6 nM, ATP 2 mM, 35 min at 27° C.
Sequence of CDK7/Cyclin H/MAT1 complex (P50613 whole entry): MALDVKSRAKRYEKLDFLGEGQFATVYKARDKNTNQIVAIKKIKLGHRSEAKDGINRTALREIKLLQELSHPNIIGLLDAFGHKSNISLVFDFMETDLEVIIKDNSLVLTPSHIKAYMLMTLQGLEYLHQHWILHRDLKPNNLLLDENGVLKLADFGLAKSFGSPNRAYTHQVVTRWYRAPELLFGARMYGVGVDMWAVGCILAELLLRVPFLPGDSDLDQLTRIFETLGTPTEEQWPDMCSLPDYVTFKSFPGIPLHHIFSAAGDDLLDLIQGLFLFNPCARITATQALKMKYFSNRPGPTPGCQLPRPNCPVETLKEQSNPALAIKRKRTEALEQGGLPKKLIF
Sequence of CDK7/Cyclin H/MAT1 complex (P51946 whole entry partner): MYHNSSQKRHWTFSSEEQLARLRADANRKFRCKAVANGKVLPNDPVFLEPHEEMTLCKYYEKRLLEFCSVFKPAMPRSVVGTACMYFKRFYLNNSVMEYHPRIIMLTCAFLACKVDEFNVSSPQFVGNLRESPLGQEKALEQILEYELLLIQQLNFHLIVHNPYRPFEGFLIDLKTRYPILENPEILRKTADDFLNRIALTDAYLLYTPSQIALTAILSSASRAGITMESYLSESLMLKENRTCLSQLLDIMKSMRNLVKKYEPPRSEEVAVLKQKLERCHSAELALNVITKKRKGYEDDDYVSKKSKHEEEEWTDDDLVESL
Sequence of CDK7/Cyclin H/MAT1 complex (P51948 whole entry partner): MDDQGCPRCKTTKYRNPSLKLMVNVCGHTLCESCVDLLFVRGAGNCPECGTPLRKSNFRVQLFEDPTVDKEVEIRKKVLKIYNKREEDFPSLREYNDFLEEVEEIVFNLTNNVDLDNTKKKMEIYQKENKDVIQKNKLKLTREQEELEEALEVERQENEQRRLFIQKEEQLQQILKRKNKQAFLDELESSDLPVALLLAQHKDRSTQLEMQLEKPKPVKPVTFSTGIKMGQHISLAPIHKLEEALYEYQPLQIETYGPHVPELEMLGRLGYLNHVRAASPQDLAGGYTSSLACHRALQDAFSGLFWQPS
Procedure, shortened: as §1

CDK9/Cyclin T1 complex = CDK9/Cyclin T1 complex (Homo sapiens, UniProt P50750); assay: CDK9 kinase inhibition assay (Caliper/LabChip EZ Reader); assay type: biochemical; settings: CDK9/Cyclin T1 8 nM, ATP 2 mM, 15 min at 27° C.
Sequence of CDK9/Cyclin T1 complex (P50750 whole entry): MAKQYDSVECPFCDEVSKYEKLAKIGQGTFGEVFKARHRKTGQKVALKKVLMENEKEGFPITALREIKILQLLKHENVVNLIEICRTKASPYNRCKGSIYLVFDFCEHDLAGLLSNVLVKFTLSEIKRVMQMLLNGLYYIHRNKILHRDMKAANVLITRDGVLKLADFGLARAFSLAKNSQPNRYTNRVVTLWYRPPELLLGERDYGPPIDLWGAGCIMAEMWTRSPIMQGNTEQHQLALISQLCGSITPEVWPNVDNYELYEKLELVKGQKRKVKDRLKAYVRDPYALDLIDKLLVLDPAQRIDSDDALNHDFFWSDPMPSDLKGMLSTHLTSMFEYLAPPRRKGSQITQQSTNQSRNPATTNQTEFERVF
Sequence of CDK9/Cyclin T1 complex (O60563 whole entry partner): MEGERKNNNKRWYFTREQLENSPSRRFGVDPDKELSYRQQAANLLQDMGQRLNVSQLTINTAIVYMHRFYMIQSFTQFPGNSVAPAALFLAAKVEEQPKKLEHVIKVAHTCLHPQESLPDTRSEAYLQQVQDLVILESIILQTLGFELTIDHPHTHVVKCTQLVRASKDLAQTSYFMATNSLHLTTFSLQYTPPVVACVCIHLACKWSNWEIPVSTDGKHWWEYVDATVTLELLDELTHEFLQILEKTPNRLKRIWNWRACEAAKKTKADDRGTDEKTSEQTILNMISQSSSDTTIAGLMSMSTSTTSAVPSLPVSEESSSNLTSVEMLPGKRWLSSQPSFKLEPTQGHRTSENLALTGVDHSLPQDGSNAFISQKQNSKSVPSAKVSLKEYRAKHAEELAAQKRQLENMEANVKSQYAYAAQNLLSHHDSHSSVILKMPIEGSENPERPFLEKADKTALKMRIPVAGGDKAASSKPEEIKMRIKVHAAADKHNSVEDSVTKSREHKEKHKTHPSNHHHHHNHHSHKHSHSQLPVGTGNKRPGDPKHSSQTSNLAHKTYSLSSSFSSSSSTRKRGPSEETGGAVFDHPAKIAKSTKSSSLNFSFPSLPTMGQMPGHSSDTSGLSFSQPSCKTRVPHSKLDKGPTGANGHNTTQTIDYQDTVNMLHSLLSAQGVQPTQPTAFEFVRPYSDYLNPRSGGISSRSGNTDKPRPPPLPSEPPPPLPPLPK
Procedure, shortened: as §1

[2] = target: T1, CDK12 (aa686-1082)/Cyclin K complex (Homo sapiens, UniProt Q9NYV4); assay: CDK12 kinase inhibition assay (Caliper/LabChip EZ Reader); assay type: biochemical; settings: CDK12 (aa686-1082)/Cyclin K 50 nM, ATP 2 mM, 3 hr at 27° C.
T1 construct: CDK12 (aa686-1082)/Cyclin K complex
T1 sequence (Q9NYV4 686-1082): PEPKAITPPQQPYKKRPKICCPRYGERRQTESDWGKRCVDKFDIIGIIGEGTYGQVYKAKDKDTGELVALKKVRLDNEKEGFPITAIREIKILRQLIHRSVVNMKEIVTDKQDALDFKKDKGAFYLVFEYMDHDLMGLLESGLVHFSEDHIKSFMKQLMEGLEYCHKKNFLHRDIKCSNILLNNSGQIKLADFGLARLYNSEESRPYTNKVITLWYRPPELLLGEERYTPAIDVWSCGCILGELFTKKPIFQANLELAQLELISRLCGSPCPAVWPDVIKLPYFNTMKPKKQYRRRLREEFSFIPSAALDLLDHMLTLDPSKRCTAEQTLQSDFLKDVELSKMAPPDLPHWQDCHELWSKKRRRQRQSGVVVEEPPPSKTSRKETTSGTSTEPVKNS
T1 sequence (O75909 whole entry partner, the tested form may be a part): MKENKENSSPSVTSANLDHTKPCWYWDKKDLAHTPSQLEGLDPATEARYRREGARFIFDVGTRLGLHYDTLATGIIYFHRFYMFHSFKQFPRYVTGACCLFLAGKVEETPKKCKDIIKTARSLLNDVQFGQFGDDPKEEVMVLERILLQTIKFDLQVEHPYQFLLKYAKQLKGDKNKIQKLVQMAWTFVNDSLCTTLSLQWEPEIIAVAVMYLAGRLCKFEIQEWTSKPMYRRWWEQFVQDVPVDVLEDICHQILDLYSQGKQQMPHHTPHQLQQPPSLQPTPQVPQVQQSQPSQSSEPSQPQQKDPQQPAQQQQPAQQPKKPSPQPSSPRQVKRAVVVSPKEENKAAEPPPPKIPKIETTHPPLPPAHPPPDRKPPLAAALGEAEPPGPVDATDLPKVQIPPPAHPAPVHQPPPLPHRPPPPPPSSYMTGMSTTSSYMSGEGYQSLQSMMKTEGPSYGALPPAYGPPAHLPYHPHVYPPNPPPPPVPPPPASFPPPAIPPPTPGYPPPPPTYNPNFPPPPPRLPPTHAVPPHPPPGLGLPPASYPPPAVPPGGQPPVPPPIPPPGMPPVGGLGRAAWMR
Procedure, shortened: as §1

A673 cells = assay: Inhibition of proliferation of A673 cells (CyQUANT, 72 hour); assay type: cell-based, human; settings: read-out: Inhibition of Proliferation of A673 Cells (calculated IC50)
Procedure, shortened: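 Read-out is CyQUANT after a 72 h proliferation period, following the kit protocol. Dilution series in 0.5-log steps over the stated 4 μM to […] range. Cells are A673 (human Ewing's sarcoma), grown in DMEM with 10% FBS and 1 mM sodium pyruvate at 37 °C under 5% CO2.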

HCC70 cells = assay: Inhibition of proliferation of HCC70 cells (CyQUANT Direct, 72 hour); assay type: cell-based, human; settings: read-out: Inhibition of Proliferation of HCC70 Cells (calculated IC50)
Description: HCC70 cells: HCC70 cells are a cell line derived from human triple negative breast cancer. Representative compounds of the invention were tested at different concentrations (from 4 μM to […]; 0.5 log serial dilutions) for their ability to inhibit the proliferation of HCC70 cells. Known CDK inhibitors dinaciclib or N-((1S,3R)-3-((5-chloro-4-(1H-indol-3-yl) pyrimidin-2-yl)amino)cyclohexyl)-5-((E)-4-(dimethylamino)but-2-enamido)picolinamide and triptolide were used as positive controls. Cells were grown in ATCC-formulated RPMI-1640 Medium (ATCC 30-2001)+10% FBS. The cells were cultured at 37° C. in a humidified chamber in the presence of 5% CO2. Proliferation assays were conducted over a 72 hour time period. CyQUANT® Direct Cell Proliferation Assay (Life Technologies, Chicago, Ill. USA) was used to assess the anti-proliferative effects of the compounds following manufacturer's directions and utilizing the reagents supplied with the CyQUANT® Direct Cell kit.

SMILES | IC50 (CDK2/Cyclin E1 complex) | IC50 [1] | IC50 (CDK9/Cyclin T1 complex) | IC50 [2] | IC50 (A673 cells) | IC50 (HCC70 cells)
Fc1cnc2[nH]cc(-c3nc(NC4CCCNC4)ncc3C(F)(F)F)c2c1 (stereo not drawn) [Compound 166] | 20 to 200 nM | < 20 nM | 200 to 5000 nM | 200 to 5000 nM | < 20 nM | < 100 nM
FC(F)(F)c1cnc(NC2CCCNC2)nc1-c1c[nH]c2cc(-c3cc[nH]n3)ccc12 (stereo not drawn) [Compound 291] | 200 to 5000 nM | < 20 nM | 200 to 5000 nM | 200 to 5000 nM | 20 to 200 nM | 100 to 1000 nM
FC(F)(F)c1cnc(NC2CCCNC2)nc1-c1c[nH]c2c(-c3ccnnc3)cccc12 (stereo not drawn) [Compound 180] | 20 to 200 nM | < 20 nM | 200 to 5000 nM | 20 to 200 nM | < 20 nM | < 100 nM
FC(F)n1cc(-c2ccc3c(-c4nc(NC5CCCNC5)ncc4C(F)(F)F)c[nH]c3c2)cn1 (stereo not drawn) [Compound 290] | 200 to 5000 nM | 20 to 200 nM | 200 to 5000 nM | 200 to 5000 nM | 20 to 200 nM | 100 to 1000 nM
CN1CCN(c2cccc3c(-c4nc(NC5CCCNC5)ncc4C(F)(F)F)c[nH]c23)C1=O (stereo not drawn) [Compound 176] | 200 to 5000 nM | < 20 nM | 200 to 5000 nM | 200 to 5000 nM | < 20 nM | 100 to 1000 nM
Cn1cc(-c2nc(NC3CCCNC3)ncc2C(F)(F)F)c2cccc(C#N)c21 (stereo not drawn) [Compound 279] | ≥ 5000 nM | 20 to 200 nM | ≥ 5000 nM | ≥ 5000 nM | 200 to 5000 nM | 1000 to 5000 nM
FC(F)(F)c1cnc(NC2CCCNC2)nc1-c1c[nH]c2c(-c3cn[nH]c3)cccc12 (stereo not drawn) [Compound 170] | 200 to 5000 nM | < 20 nM | 200 to 5000 nM | 20 to 200 nM | < 20 nM | < 100 nM
Clc1cnc(NC2CCCNC2)nc1-c1c[nH]c2ncccc12 (stereo not drawn) [Compound 118] | 200 to 5000 nM | < 20 nM | 200 to 5000 nM | 20 to 200 nM | 20 to 200 nM | < 100 nM
CC1CCNCC1Nc1ncc(C(F)(F)F)c(-c2c[nH]c3ccccc23)n1 (stereo not drawn) [Compound 285] | ≥ 5000 nM | 200 to 5000 nM | ≥ 5000 nM | ≥ 5000 nM | < 20 nM | < 100 nM
CC1(C)CCC(Nc2ncc(C(F)(F)F)c(-c3c[nH]c4ccccc34)n2)CN1 (stereo not drawn) [Compound 190] | 200 to 5000 nM | < 20 nM | 200 to 5000 nM | 200 to 5000 nM | < 20 nM | 100 to 1000 nM
Cc1[nH]ncc1-c1cccc2c(-c3nc(N[C@@H]4CCCNC4)ncc3C(F)(F)F)c[nH]c12 [Compound 175] | 200 to 5000 nM | < 20 nM | 20 to 200 nM | 200 to 5000 nM | < 20 nM | 1000 to 5000 nM
Cn1cc(-c2nc(NC3CCCNC3)ncc2C(F)(F)F)c2ccc(C#N)nc21 (stereo not drawn) [Compound 273] | – | – | – | – | 200 to 5000 nM | 1000 to 5000 nM
N#Cc1ccc2c(-c3nc(N[C@@H]4CNCC[C@H]4F)ncc3C(F)(F)F)c[nH]c2c1 [Compound 351] | 200 to 5000 nM | < 20 nM | 200 to 5000 nM | 200 to 5000 nM | – | < 100 nM
FC(F)(F)c1cnc(N[C@H]2CCCNC2)nc1-c1c[nH]c2cc(-c3cccc4cnccc34)ccc12 [Compound 344] | 200 to 5000 nM | 20 to 200 nM | ≥ 5000 nM | 200 to 5000 nM | – | 100 to 1000 nM
O=C(O)c1ccc2c(-c3nc(NC4CCCNC4)ncc3C(F)(F)F)c[nH]c2c1 (stereo not drawn) [Compound 306] | 200 to 5000 nM | 20 to 200 nM | ≥ 5000 nM | 200 to 5000 nM | – | 100 to 1000 nM
Cn1ccc(-c2ccc3c(-c4nc(NC5CCCNC5)ncc4C(F)(F)F)c[nH]c3c2)n1 (stereo not drawn) [Compound 303] | 200 to 5000 nM | < 20 nM | 200 to 5000 nM | 200 to 5000 nM | – | 100 to 1000 nM
O=C1CCN(C(=O)c2ccc3c(-c4nc(NC5CCCNC5)ncc4C(F)(F)F)c[nH]c3c2)C1 (stereo not drawn) [Compound 302] | 200 to 5000 nM | 20 to 200 nM | 200 to 5000 nM | 200 to 5000 nM | – | 100 to 1000 nM
